Results reported in patent US10655144B2, “Nucleic acid construct with a p16 promoter that causes a prodrug converting enzyme to be expressed specifically in senescent cells” (Buck Institute for Research on Aging, priority 2012, dated 2020).

Columns and labels:
senescent cells [1] = assay: Measures of health at 18 months of age (weight, fat mass, treadmill activity) in AP20187-treated INK-ATTAC mice; assay type: in vivo, INK-ATTAC transgenic mice
Protocol: (§1) Clearance of therapy-induced senescent cells improves age-sensitive traits and other health parameters in aged animals. […] INK-ATTAC transgenic animals from each of lineage 3 (TG3) and lineage 5 (TG5) were used in the experiments (see Baker et al., Nature, supra). INK-ATTAC transgenic mice were aged 10-12 weeks, and then cohorts of animals were treated with AP20187 or PBS (control) on a weekly basis from the start of treatment.
(§2) When the animals reached 18 months of age, several measures of health and lifespan were taken. Weight, fat mass, activity measurements (treadmill exercise tests to measure distance traveled and duration of exercise) were compared between untreated female mice (n=16) and AP20187-treated female mice (n=21), and compared between untreated male mice (n=19) and AP20187-treated male mice (n=21). Fat mass was greater in both treated females and males compared with the untreated groups (see FIG. 5). […] Treated and untreated mice (5-6 per group) were sacrificed, and adipose cell (AC) diameter, gastrocnemius muscle fiber diameter (μm), abdominal muscle fiber diameter (μm), dermal thickness (μm), subdermal adipose thickness (μm), cardiac performance (introduction of isoproterenol as an exogenous stress in animals prior to sacrifice), and extent of glomerulosclerosis were determined. Treated animals had greater adipose cell diameter (see FIG. 6); better cardiac performance (FIG. 7); and had less sclerotic glomeruli (see FIG. 8) than untreated animals. […] Removal of senescent cells in AP20187-treated animals prevented loss of adipose tissue, prevented loss of cardiac performance, and reduced the extent of glomerulosclerosis.

senescent cells [2] = assay: Tissue and organ analyses after sacrifice (adipose cell diameter, muscle fiber diameter, skin thickness, cardiac performance, glomerulosclerosis) in AP20187-treated INK-ATTAC mice; assay type: in vivo, INK-ATTAC transgenic mice; settings: treated vs untreated
Protocol: as §1, §2

senescent cells [3] = assay: Lifespan of wild type INK-ATTAC transgenic mice with senescent cells removed by weekly AP20187; assay type: in vivo; settings: weekly treatment from 10-12 weeks of age; PBS control 21 months; FIG. 4
Protocol: as §1

CC[C@H](C(=O)N1CCCC[C@H]1C(=O)O[C@H](CCc1ccc(OC)c(OC)c1)c1cccc(OCC(=O)NCC(CNC(=O)COc2cccc([C@@H](CCc3ccc(OC)c(OC)c3)OC(=O)[C@@H]3CCCCN3C(=O)[C@@H](CC)c3cc(OC)c(OC)c(OC)c3)c2)CN(C)C)c1)c1cc(OC)c(OC)c(OC)c1 [AP20187]
fat mass (senescent cells [1]; treated females and males each vs untreated group of same sex, FIG. 5): greater
activity measurements (treadmill exercise tests: distance traveled and duration of exercise) (senescent cells [1]; treated vs untreated animals): No statistically significant differences
weight (senescent cells [1]; treated vs untreated animals): No statistically significant differences
cardiac performance (senescent cells [2]; isoproterenol as exogenous stress prior to sacrifice, FIG. 7): better
adipose cell (AC) diameter (senescent cells [2]; sacrificed mice, 5-6 per group, FIG. 6): greater
abdominal muscle fiber diameter (senescent cells [2]; sacrificed mice): No significant differences
dermal thickness (senescent cells [2]; sacrificed mice): No significant differences
gastrocnemius muscle fiber diameter (senescent cells [2]; sacrificed mice): No significant differences
subdermal adipose thickness (senescent cells [2]; sacrificed mice): No significant differences
extent of glomerulosclerosis (sclerotic glomeruli) (senescent cells [2]; sacrificed mice, FIG. 8): less
average lifespan (senescent cells [3]): approximately 26 months
